Data reported in US6737383B1, “Herbicidal oxadiazolidines” (priority 1999, dated 2004).

Assays:
wheat = experiment: Test B pre/postemergence wheat; type: in vivo, Triticum aestivum; settings: for Wheat plant response rating: scale of 0 to 10 where 0 is no effect and 10 is complete control
Procedure, shortened: (§1)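 Test chemicals in a non-phytotoxic solvent mixture with surfactant were sprayed preemergence onto planted seeds and postemergence onto plants 2 to 18 cm tall (1- to 4-leaf stage). After twelve to sixteen days in a greenhouse, injury was visually rated against untreated controls from 0 (no effect) to 10 (complete control).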

cocklebur = experiment: Test B pre/postemergence cocklebur; type: in vivo, Xanthium strumarium; settings: for Cocklebur plant response rating: scale of 0 to 10 where 0 is no effect and 10 is complete control
Procedure, shortened: as §1

corn = experiment: Test B pre/postemergence corn; type: in vivo, Zea mays; settings: for Corn plant response rating: scale of 0 to 10 where 0 is no effect and 10 is complete control
Procedure, shortened: as §1

bedstraw = experiment: Test B pre/postemergence bedstraw; type: in vivo, Galium aparine
Procedure, shortened: as §1

purple nutsedge = experiment: Test B pre/postemergence purple nutsedge; type: in vivo, Cyperus rotundus; settings: for Nutsedge plant response rating: scale of 0 to 10 where 0 is no effect and 10 is complete control
Procedure, shortened: as §1

blackgrass = experiment: Test B pre/postemergence blackgrass; type: in vivo, Alopecurus myosuroides; settings: for Blackgrass plant response rating: scale of 0 to 10 where 0 is no effect and 10 is complete control
Procedure, shortened: as §1

wild oat = experiment: Test B pre/postemergence wild oat; type: in vivo, Avena fatua; settings: for Wild oats plant response rating: scale of 0 to 10 where 0 is no effect and 10 is complete control
Procedure, shortened: as §1

rape = experiment: Test B pre/postemergence rape; type: in vivo, Brassica napus; settings: for Rape plant response rating: scale of 0 to 10 where 0 is no effect and 10 is complete control
Procedure, shortened: as §1

pigweed = experiment: Test B pre/postemergence pigweed; type: in vivo, Amaranthus retroflexus; settings: for Redroot pigweed plant response rating: scale of 0 to 10 where 0 is no effect and 10 is complete control
Procedure, shortened: as §1

velvetleaf = experiment: Test B pre/postemergence velvetleaf; type: in vivo, Abutilon theophrasti; settings: for Velvetleaf plant response rating: scale of 0 to 10 where 0 is no effect and 10 is complete control
Procedure, shortened: as §1

surinam grass = experiment: Test B pre/postemergence surinam grass; type: in vivo, Brachiaria decumbens; settings: for B. signalgrass plant response rating: scale of 0 to 10 where 0 is no effect and 10 is complete control
Procedure, shortened: as §1

smallflower flatsedge = experiment: Test B flood test smallflower flatsedge; type: in vivo, Cyperus difformis
Procedure, shortened: (§2)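 Each value is a visual injury score relative to controls, with 10 meaning complete control and 0 no effect. Evaluation took place twelve to sixteen days after the 2-leaf-stage plants were treated and kept in the greenhouse.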

morningglory = experiment: Test B pre/postemergence morningglory; type: in vivo, Ipomoea hederacea; settings: for Morningglory plant response rating: scale of 0 to 10 where 0 is no effect and 10 is complete control
Procedure, shortened: as §1

duck salad = experiment: Test B flood test duck salad; type: in vivo, Heteranthera limosa
Procedure, shortened: as §2

bamyardgrass = experiment: Test B flood test barnyardgrass; type: in vivo, Echinochloa crus-galli
Procedure, shortened: as §2

rice = experiment: Test B flood test rice; type: in vivo, Oryza sativa
Procedure, shortened: as §2

[1] = Postemergence, Rate 125 g/ha, scale 0 to 10, 0 is no effect, 10 is complete control
[2] = Postemergence, Rate 250 g/ha, scale 0 to 10, 0 is no effect, 10 is complete control
[3] = Preemergence, Rate 62 g/ha, scale 0 to 10 (0 no effect, 10 complete control)
[4] = Rate 500 g/ha, Postemergence, scale 0 to 10, 0 no effect, 10 complete control
[5] = Rate 62 g/ha, flood test species, Pre-emergence, visual evaluation after twelve to sixteen days
[6] = Rate 125 g/ha, under heading Pre-emergence, flood test species, visual evaluation after twelve to sixteen days
[7] = Rate 250 g/ha, Pre-emergence, flood-test species, scale 0 to 10, 0 is no effect, 10 is complete control
[8] = Rate 500 g/ha, Pre-emergence, flood test species, scale 0 to 10 (0 no effect, 10 complete control)

`CC(C)N(C(=O)n1oc(=O)n(N2C(C)CCCC2C)c1=O)c1ccc(F)cc1F` (stereo not drawn) [Compound 383] was tested, and the “Plant response rating, Wheat” value (wheat; [1]) was 0, the “Plant response rating, Wheat” value (wheat; [2]) was 0 and the “Plant response rating, Wheat” value (wheat; [3]) was 0. For the same molecule, the “Wheat plant response rating (0 to 10 scale)” value (wheat; Preemergence, Rate 125 g/ha) was 0, the “Wheat plant response rating” value (wheat; Preemergence, Rate 250 g/ha) was 0 and the “Wheat plant response rating” value (wheat; Preemergence, Rate 500 g/ha) was 0. The “Wheat plant response rating” value (wheat; Rate 62 g/ha, Postemergence) was 0, the “Plant response rating, Wheat” value (wheat; [4]) was 0 and the “Plant response rating, Cocklebur” value (cocklebur; [1]) was 0. For the same molecule, the “Plant response rating, Cocklebur” value (cocklebur; [2]) was 0, the “Plant response rating, Cocklebur” value (cocklebur; [3]) was 0 and the “Cocklebur plant response rating (0 to 10 scale)” value (cocklebur; Preemergence, Rate 125 g/ha) was 0. The “Cocklebur plant response rating” value (cocklebur; Preemergence, Rate 250 g/ha) was 0, the “Cocklebur plant response rating” value (cocklebur; Preemergence, Rate 500 g/ha) was 0 and the “Cocklebur plant response rating” value (cocklebur; Rate 62 g/ha, Postemergence) was 0. The “Plant response rating, Cocklebur” value (cocklebur; [4]) was 0, the “Plant response rating, Corn” value (corn; [1]) was 0 and the “Plant response rating, Corn” value (corn; [2]) was 0. For the same molecule, the “Plant response rating, Corn” value (corn; [3]) was 0, the “Corn plant response rating (0 to 10 scale)” value (corn; Preemergence, Rate 125 g/ha) was 0 and the “Corn plant response rating” value (corn; Preemergence, Rate 250 g/ha) was 0. The “Corn plant response rating” value (corn; Preemergence, Rate 500 g/ha) was 0, the “Corn plant response rating” value (corn; Rate 62 g/ha, Postemergence) was 0 and the “Plant response rating, Corn” value (corn; [4]) was 0. For the same molecule, the “Plant response rating, Bedstraw” value (bedstraw; [1]) was 0, the “Plant response rating, Bedstraw” value (bedstraw; [2]) was 0 and the “Plant response rating, Bedstraw” value (bedstraw; [3]) was 0. For the same molecule, the “Plant response rating, Bedstraw” value (bedstraw; [4]) was 0, the “Plant response rating, Nutsedge” value (purple nutsedge; [1]) was 0 and the “Plant response rating, Nutsedge” value (purple nutsedge; [2]) was 0. For the same molecule, the “Plant response rating, Nutsedge” value (purple nutsedge; [3]) was 0, the “Nutsedge plant response rating (0 to 10 scale)” value (purple nutsedge; Preemergence, Rate 125 g/ha) was 0 and the “Nutsedge plant response rating” value (purple nutsedge; Preemergence, Rate 250 g/ha) was 0. The “Nutsedge plant response rating” value (purple nutsedge; Preemergence, Rate 500 g/ha) was 0, the “Nutsedge plant response rating” value (purple nutsedge; Rate 62 g/ha, Postemergence) was 0 and the “Plant response rating, Nutsedge” value (purple nutsedge; [4]) was 0. The “Plant response rating, Blackgrass” value (blackgrass; [1]) was 0, the “Plant response rating, Blackgrass” value (blackgrass; [2]) was 2 and the “Plant response rating, Blackgrass” value (blackgrass; [3]) was 0. The “Blackgrass plant response rating (0 to 10 scale)” value (blackgrass; Preemergence, Rate 125 g/ha) was 0, the “Blackgrass plant response rating” value (blackgrass; Preemergence, Rate 250 g/ha) was 2 and the “Blackgrass plant response rating” value (blackgrass; Preemergence, Rate 500 g/ha) was 7. For the same molecule, the “Blackgrass plant response rating” value (blackgrass; Rate 62 g/ha, Postemergence) was 0, the “Plant response rating, Blackgrass” value (blackgrass; [4]) was 8 and the “Plant response rating, Wild oats” value (wild oat; [1]) was 0. For the same molecule, the “Plant response rating, Wild oats” value (wild oat; [2]) was 0, the “Plant response rating, Wild oats” value (wild oat; [3]) was 0 and the “Wild oats plant response rating (0 to 10 scale)” value (wild oat; Preemergence, Rate 125 g/ha) was 0. For the same molecule, the “Wild oats plant response rating” value (wild oat; Preemergence, Rate 250 g/ha) was 0, the “Wild oats plant response rating” value (wild oat; Preemergence, Rate 500 g/ha) was 0 and the “Wild oats plant response rating” value (wild oat; Rate 62 g/ha, Postemergence) was 0. The “Plant response rating, Wild oats” value (wild oat; [4]) was 0, the “Plant response rating, Rape” value (rape; [1]) was 0 and the “Plant response rating, Rape” value (rape; [2]) was 0. The “Plant response rating, Rape” value (rape; [3]) was 0, the “Rape plant response rating (0 to 10 scale)” value (rape; Preemergence, Rate 125 g/ha) was 0 and the “Rape plant response rating” value (rape; Preemergence, Rate 250 g/ha) was 0. The “Rape plant response rating” value (rape; Preemergence, Rate 500 g/ha) was 0, the “Rape plant response rating” value (rape; Rate 62 g/ha, Postemergence) was 0 and the “Plant response rating, Rape” value (rape; [4]) was 0. The “Plant response rating, Redroot pigweed” value (pigweed; [1]) was 0, the “Plant response rating, Redroot pigweed” value (pigweed; [2]) was 0 and the “Plant response rating, Redroot pigweed” value (pigweed; [3]) was 0. For the same molecule, the “Redroot pigweed plant response rating (0 to 10 scale)” value (pigweed; Preemergence, Rate 125 g/ha) was 0, the “Redroot pigweed plant response rating” value (pigweed; Preemergence, Rate 250 g/ha) was 0 and the “Redroot pigweed plant response rating” value (pigweed; Preemergence, Rate 500 g/ha) was 3. The “Redroot pigweed plant response rating” value (pigweed; Rate 62 g/ha, Postemergence) was 0, the “Plant response rating, Redroot pigweed” value (pigweed; [4]) was 0 and the “Plant response rating, Velvetleaf” value (velvetleaf; [1]) was 0. For the same molecule, the “Plant response rating, Velvetleaf” value (velvetleaf; [2]) was 0, the “Plant response rating, Velvetleaf” value (velvetleaf; [3]) was 0 and the “Velvetleaf plant response rating (0 to 10 scale)” value (velvetleaf; Preemergence, Rate 125 g/ha) was 0. The “Velvetleaf plant response rating” value (velvetleaf; Preemergence, Rate 250 g/ha) was 0, the “Velvetleaf plant response rating” value (velvetleaf; Preemergence, Rate 500 g/ha) was 0 and the “Velvetleaf plant response rating” value (velvetleaf; Rate 62 g/ha, Postemergence) was 0. The “Plant response rating, Velvetleaf” value (velvetleaf; [4]) was 0, the “Plant response rating, B. signalgrass” value (surinam grass; [1]) was 0 and the “Plant response rating, B. signalgrass” value (surinam grass; [2]) was 0. The “Plant response rating, B. signalgrass” value (surinam grass; [3]) was 0, the “B. signalgrass plant response rating (0 to 10 scale, 0 is no effect, 10 is complete control)” value (surinam grass; Preemergence, Rate 125 g/ha) was 0 and the “B. signalgrass plant response rating” value (surinam grass; Preemergence, Rate 250 g/ha) was 0. For the same molecule, the “B. signalgrass plant response rating” value (surinam grass; Preemergence, Rate 500 g/ha) was 6, the “B. signalgrass plant response rating” value (surinam grass; Rate 62 g/ha, Postemergence) was 0 and the “Plant response rating, B. signalgrass” value (surinam grass; [4]) was 0. For the same molecule, the “Plant response rating, S. Flatsedge (0 to 10 scale, 0 is no effect, 10 is complete control)” value (smallflower flatsedge; [5]) was 0, the “S. Flatsedge plant response rating (0 to 10 scale, 0 is no effect, 10 is complete control)” value (smallflower flatsedge; [6]) was 0 and the “S. Flatsedge plant response rating” value (smallflower flatsedge; [7]) was 0. For the same molecule, the “S. Flatsedge plant response rating” value (smallflower flatsedge; [8]) was 0, the “Plant response rating, Morningglory” value (morningglory; [1]) was 0 and the “Plant response rating, Morningglory” value (morningglory; [2]) was 0. The “Plant response rating, Morningglory” value (morningglory; [3]) was 0, the “Morningglory plant response rating (0 to 10 scale)” value (morningglory; Preemergence, Rate 125 g/ha) was 0 and the “Morningglory plant response rating” value (morningglory; Preemergence, Rate 250 g/ha) was 0. The “Morningglory plant response rating” value (morningglory; Preemergence, Rate 500 g/ha) was 0, the “Morningglory plant response rating” value (morningglory; Rate 62 g/ha, Postemergence) was 0 and the “Plant response rating, Morningglory” value (morningglory; [4]) was 0. For the same molecule, the “Plant response rating, Ducksalad (0 to 10 scale, 0 is no effect, 10 is complete control)” value (duck salad; [5]) was 0, the “Ducksalad plant response rating (0 to 10 scale, 0 is no effect, 10 is complete control)” value (duck salad; [6]) was 0 and the “Ducksalad plant response rating” value (duck salad; [7]) was 0. The “Ducksalad plant response rating” value (duck salad; [8]) was 0, the “Plant response rating, Barnyardgrass (0 to 10 scale, 0 is no effect, 10 is complete control)” value (bamyardgrass; [5]) was 0 and the “Barnyardgrass plant response rating (0 to 10 scale, 0 is no effect, 10 is complete control)” value (bamyardgrass; [6]) was 0. The “Barnyardgrass plant response rating” value (bamyardgrass; [7]) was 0, the “Barnyardgrass plant response rating” value (bamyardgrass; [8]) was 0 and the “Plant response rating, Rice (0 to 10 scale, 0 is no effect, 10 is complete control)” value (rice; [5]) was 0. The “Rice plant response rating (0 to 10 scale, 0 is no effect, 10 is complete control)” value (rice; [6]) was 0, the “Rice plant response rating” value (rice; [7]) was 0 and the “Rice plant response rating” value (rice; [8]) was 0.
